Data reported in ChEMBL document CHEMBL4393720, “Design, synthesis and biological evaluation of bromophenol-thiazolylhydrazone hybrids inhibiting the interaction of translation initiation factors eIF4E/eIF4G as multifunctional agents for cancer treatment” (Eur J Med Chem, 2019).

Assays:
U-87 MG = test: Antiproliferative activity against human U87MG cells assessed as inhibition of cell growth incubated for 48 hrs by MTT assay; format: functional, cell-based, U-87MG ATCC
A549 = test: Antiproliferative activity against human A549 cells assessed as inhibition of cell growth incubated for 48 hrs by MTT assay; format: functional, cell-based; details: A549, 48 h
HUVEC = test: Antiproliferative activity against human HUVEC cells assessed as inhibition of cell growth incubated for 48 hrs by MTT assay; format: cell-based
HepG2 = test: Antiproliferative activity against human HepG2 cells assessed as inhibition of cell growth incubated for 48 hrs by MTT assay; format: functional, cell-based; details: HepG2, 48 h
Caco-2 = test: Antiproliferative activity against human Caco2 cells assessed as inhibition of cell growth incubated for 48 hrs by MTT assay; format: functional, cell-based; details: Caco-2, 48 h

Compound | IC50 (U-87 MG) [µM] | IC50 (A549) [µM] | IC50 (HepG2) [µM] | IC50 (Caco-2) [µM] | IC50 (HUVEC) [µM]
COc1cc(/C=N/Nc2nc(-c3ccc(F)c(F)c3)cs2)c(Br)c(Br)c1OC | 19.6 | 8.38 | 49.7 | 22.8 | 54.7
Fc1ccc(/C=N/Nc2nc(-c3ccccc3)cs2)cc1F | > 100 | 91.4 | > 100 | 20.9 | > 100
Fc1ccc(/C=N/Nc2nc(-c3cccc(Br)c3)cs2)cc1F | 39.9 | 16.2 | 16.7 | 17.5 | > 100
O=C(O)/C(Cc1ccccc1[N+](=O)[O-])=N\Nc1nc(-c2ccc(Cl)c(Cl)c2)cs1 | 75 | 58.6 | 36.9 | 44.7 | 67.5
Fc1ccc(/C=N/Nc2nc(-c3ccc(Br)cc3)cs2)cc1F | > 100 | > 100 | > 100 | 43.9 | > 100
COc1ccccc1-c1csc(N/N=C/c2cc(OC)c(OC)c(Br)c2Br)n1 | > 100 | 85.1 | > 100 | > 100 | > 100
COc1cc(/C=N/Nc2nc(-c3ccccc3)cs2)c(Br)c(Br)c1OC | 20.1 | 15.3 | 33.6 | 26.5 | > 100
COc1ccccc1-c1csc(N/N=C/c2ccc(F)c(F)c2)n1 | 40.6 | 61.3 | > 100 | 25.2 | > 100
COc1cc(/C=N/Nc2nc(-c3ccc(Br)cc3)cs2)c(Br)c(Br)c1OC | > 100 | 46.1 | > 100 | > 100 | > 100
COc1ccccc1-c1csc(N/N=C/c2cc(Br)c(OC)c(OC)c2)n1 | > 100 | 94.9 | 82.1 | > 100 | > 100
COc1cc(/C=N/Nc2nc(-c3cccc(Br)c3)cs2)c(Br)c(Br)c1OC | 27.6 | 37 | > 100 | > 100 | > 100
Fc1ccc(/C=N/Nc2nc(-c3ccc(F)c(F)c3)cs2)cc1F | 43.9 | 8.49 | 26.6 | 14.2 | 59.7

More lines, main results first:

IC50 (U-87 MG) [µM] | IC50 (A549) [µM] | IC50 (HepG2) [µM] | IC50 (Caco-2) [µM] | Compound | IC50 (HUVEC) [µM]
> 100 | 94.2 | > 100 | > 100 | COc1cc(/C=N/Nc2nc(-c3cc(C(F)(F)F)cc(C(F)(F)F)c3)cs2)cc(Br)c1OC | > 100
74.1 | 40 | 68.3 | 64.2 | COc1cc(/C=N/Nc2nc(-c3ccccc3)cs2)cc(Br)c1OC | > 100
> 100 | > 100 | > 100 | > 100 | COc1cc(/C=N/Nc2nc(-c3cc(C(F)(F)F)cc(C(F)(F)F)c3)cs2)c(Br)c(Br)c1OC | > 100
41 | 18.3 | 31.2 | 65.9 | COc1cc(/C=N/Nc2nc(-c3ccc(C(F)(F)F)cc3)cs2)cc(Br)c1OC | > 100
27.9 | 52.3 | 64.6 | 36.2 | COc1cc(/C=N/Nc2nc(-c3ccc(Br)cc3)cs2)cc(Br)c1OC | > 100
26.3 | 21.1 | 22.4 | 21.2 | COc1cc(/C=N/Nc2nc(-c3ccc(F)c(F)c3)cs2)cc(Br)c1OC | > 100
86.3 | 56 | 66.2 | 43.4 | COc1cc(/C=N/Nc2nc(-c3cccc(Br)c3)cs2)cc(Br)c1OC | > 100
29.7 | 6.23 | 16.7 | 62.8 | Fc1ccc(/C=N/Nc2nc(-c3cc(C(F)(F)F)cc(C(F)(F)F)c3)cs2)cc1F | > 100
> 100 | 17.6 | > 100 | > 100 | COc1cc(/C=N/Nc2nc(-c3ccc(C(F)(F)F)cc3)cs2)c(Br)c(Br)c1OC | > 100
